What was measured:
[1] = tested on: P. yoelii (265 BY strain) hepatic stages; experiment: In vitro assay for P. yoelii liver stage inhibition in primary mouse hepatocytes; type: cell-based; details: for IC50 / IC90: 48 h
Experimental: P. yoelii (265 BY strain) and P. falciparum (NF 54 strain) sporozoites were obtained by dissection of infected Anopheles stephensi salivary glands. Primary mouse hepatocytes were isolated as previously described and seeded in eight-well Lab-Tek plastic chamber slides (VWR, Fontenay-sous-Bois, France) previously coated with rat-tail collagen I (BD Biosciences, Le Pont de Claix, France) at a density of 10^5 cells per well. Mouse hepatocytes were cultured at 37 °C in 5% CO2 in William's E medium supplemented with 10% fetal calf serum, 1% L-glutamine, 1% sodium pyruvate, 1% insulin-transferrin-selenium, 1% nonessential amino acids, and 1% penicillin-streptomycin (all from Invitrogen, Cergy-Pontoise, France), for 24 h before inoculation of P. yoelii sporozoites (10^5 per well). Human liver fragments were collected following informed consent provided from patients undergoing a partial hepatectomy. The collection and use of these tissues were undertaken in accordance with French Government ethical regulations. Primary human hepatocytes were isolated from the healthy parts of these liver biopsies as previously described. Human hepatocytes were seeded in LabTek plastic chamber slides coated with collagen, at a density of 1.8 × 10^5 cells per well and cultured at 37 °C in 5% CO2 in the same medium as above, supplemented with 10^−7 M dexamethasone (Sigma) and 2% DMSO after complete cell adherence (12–24 h), for at least 48 h before inoculation of P. falciparum sporozoites (10^5 per well). For a standard assay, the plant extract, the purified compound, or primaquine was solubilized in DMSO, further diluted in culture medium (equal DMSO concentrations of <0.3% per well), and then added to hepatocyte cultures at the time of sporozoite inoculation. Three hours later, after sporozoite penetration into hepatocytes, cultures were washed and further incubated in the presence of the drug. Culture medium containing the appropriate drug concentration was changed daily until 48 h for P. yoelii, or until 5 d for P. falciparum. Parasites were quantified on the last day of incubation. For the in vitro timing experiments, tazopsine treatment of P. yoelii and P. falciparum cultures was undertaken for different periods during the cultivation: 0 h to 3 h, 3 h to 24 h, or 24 h to 48 h after P. yoelii sporozoite inoculation (quantification at 48 h), or 0 h to 2 d, or 3 d to 5 d after P. falciparum sporozoite inoculation (quantification at 5 d). […] Cells were stained with Evans Blue (0.4%), and parasites and cells nuclei were stained with 1 μg/ml of diamidino-phenylindole (DAPI; Sigma). Parasite numbers were counted under a fluorescence microscope with a 25× light microscope objective.
(§1) IC50 and TC50 were calculated by nonlinear regression using four-parameter logistic curves on the SigmaPlot 10.0 software (http://www.systat.com). Each IC50 or TC50 is expressed as a mean between two independent experiments, followed by the standard error of the mean.

[2] = tested on: primary human hepatocytes; experiment: In vitro assay for cell viability (neutral red), human hepatocytes; type: cell-based; details: 5 d drug exposure
Experimental: (§2) Primary hepatocytes of mice or humans were prepared as above and seeded in 96-well plates coated with collagen, at a density of 5 × 10^4 and 7 × 10^4 cells per well, respectively. Drugs were added to the culture medium, which was changed daily after 24 h or 48 h of incubation for mouse and human hepatocytes, respectively. After 48 h of drug exposure (mouse hepatocytes) or 5 d (human hepatocytes), 50 μl of neutral red (Sigma) at 0.02% in phosphate-buffered saline (PBS) were added per well and incubated for 24 additional hours. Cultures were then washed with PBS and the neutral red extracted with 1% SDS from viable cells and quantified by measuring the OD540 on a microplate autoreader photometer (BioTek Instruments, Winooski, Vermont, United States).
as §1

[3] = tested on: primary mouse hepatocytes; experiment: In vitro assay for cell viability (neutral red), mouse hepatocytes; type: cell-based; details: 48 h drug exposure
Experimental: as §2, §1

[4] = tested on: P. falciparum clone FCR3 (chloroquine resistant) erythrocytic stages; experiment: In vitro assay for P. falciparum blood stages inhibition, clone FCR3; type: cell-based
Experimental: (§3) P. falciparum clone 3D7 (chloroquine sensitive) and clone FCR3 (chloroquine resistant) erythrocytic stages were cultured as described, and drug antiplasmodial activity was assessed by the standard method with minor modifications. Briefly, the compounds tazopsine and NCP-tazopsine solubilized in DMSO were further diluted in RPMI before adding to parasite cultures (0.5% parasitemia, mainly young trophozoites, and 1.8% final hematocrit), in a 2-fold dilution series. Plates were maintained for 24 h at 37 °C in 5% CO2. Then 0.5 μCi of [^3H]-hypoxanthine was added to each well, and cultures were incubated for a further 24 h. The growth inhibition was determined by comparison of the radioactivity incorporated into the treated cultures with that into the control cultures, by liquid scintillation counting.

[5] = tested on: P. falciparum clone 3D7 (chloroquine sensitive) erythrocytic stages; experiment: In vitro assay for P. falciparum blood stages inhibition, clone 3D7; type: cell-based
Experimental: as §3

[6] = Oral toxicity in mice

## COC1=C2[C@H]3NCC[C@]2(C[C@H](O)[C@@H]1O)c1c(ccc(OC)c1O)[C@H]3O [Tazopsine, tazopsine]
[1]; P. yoelii, exposure 0-3 h, 3-24 h or 24-48 h
  phase of hepatic development most susceptible to inhibition: most pronounced during the early developmental stages of the hepatic parasite (3 to 24 h)
[1]; Plasmodium yoelii, Hepatocyte
  IC80: 5 µM
  IC50: 3.1 ± 0.1 µM
  IC90: 6.3 ± 0.8 µM
[1]; cultured P. yoelii hepatic stages
  concentration giving total inhibition: ≥ 7.1 µM
[1]; exposure 0-3 h postinfection, suboptimal inhibitory concentrations
  Sporozoite invasion and differentiation into early hepatic stages: not affected
[2]
  TC50: 28.4 ± 4.3 µM
[3]
  TC50: 43.7 ± 1.6 µM
[4]; Plasmodium falciparum, FCR3
  IC50: 5.7 ± 2.1 µM
[5]; Plasmodium falciparum, 3D7
  IC50: 4.7 ± 0.9 µM
[6]; given daily over 4 d
  oral dose above which toxic to mice: exceeding 100 mg/kg

## COC1=C2[C@@H]3[C@H](O)c4ccc(OC)c(O)c4[C@]2(CCN3C2CCCC2)C[C@H](O)[C@@H]1O [NCP-tazopsine, N-cyclopentyl-tazopsine]
[1]; Plasmodium yoelii, Hepatocyte
  IC50: 3.3 ± 0.05 µM
  IC90: 5.2 ± 1.4 µM
[2]
  TC50: 2,549.6 ± 307.6 μM
[3]
  TC50: 150.5 ± 9.5 µM
[4]; FCR3 line, up to concentrations of 600 μM
  effect on multiplication of cultured erythrocytic P. falciparum: did not have any detectable effect
[5]; 3D7 line, up to concentrations of 600 μM
  effect on multiplication of cultured erythrocytic P. falciparum: did not have any detectable effect
[6]; up to doses of 400 mg/kg for 4 d
  toxicity to mice: not found to be toxic

— article PMC1716192, “A Plant-Derived Morphinan as a Novel Lead Compound Active against Malaria Liver Stages” (PLoS Medicine, 2006)
